Values quoted from earlier work as cited in patent US8815929B2, “Method and therapeutic/cosmetic topical compositions for the treatment of rosacea and skin erythema using α1-adrenoceptor agonists” (Allergan, Inc., priority 2004, dated 2014).
Where a name gives a salt, the structure may show the parent alone.

How the values were obtained:
[1] = dog, cat, rabbit or mouse; dosages close to those used in man; manufacturers' report
[2] = used intranasally and ophthalmically for decades
[3] = rabbits; injection subcutaneously
[4] = retrospective study in man

association between the drug and congenital disorders [4]: no association was found
Structure (SMILES): Cc1cc(C(C)(C)C)c(O)c(C)c1CC1=NCCN1 [oxymetazoline, 2-(3-Hydroxy-2,6-dimethyl-4-t-butylbenzyl)-2-imidazoline hydrochloride]
organ damage or general toxicity [1]: no significant organ damage or general toxicity
systemic side effects [2]: has not been reported to effect any systemic side effects
drug related abnormalities or effects on the offspring [3]: no drug related abnormalities or effects on the offspring were found
